Source: publication PMC5571359, “Screening the Medicines for Malaria Venture Pathogen Box across Multiple Pathogens Reclassifies Starting Points for Open-Source Drug Discovery” (Antimicrobial Agents and Chemotherapy, 2017)
Read-outs that look alike come from different tables or passages of the source.

Columns and labels:
[1] = tested on: Plasmodium falciparum 3D7 asexual blood stage; test: microbe, parasite or virus in culture
HEK293 cells = test: HEK293 resazurin cell cytotoxicity assay; details: Homo sapiens; for inhibition at 20 µM: HEK293, read-out: HEK % Inhibition 20uM/IC50 Discovery Biology
P. falciparum ABS = details: cited from earlier work; for EC50: ChEMBL Data; for IC50: read-out: Pf 3D7 Pbox IC50
liver stage = details: cited from earlier work
[2] = tested on: NF54-pfs16-LUC-GFP stage IV gametocytes; test: Plasmodium falciparum late stage gametocyte (LSG) image-based assay; type: cell-based; details: for IC50 / inhibition at 20 µM: Plasmodium falciparum; for inhibition at 20 µM: NF54, read-out: percent inhibition at the top screening dose, P. falciparum NF54 LSG
[3] = tested on: P. falciparum stage V gametocytes; details: cited from earlier work; for IC50 / PF stage V GAMS PBox IC50 µM: stage V gametocytes; for IC50: read-out: PF stage V GAMS PBox IC50
HepG2 = details: read-out: HepG2 PBox CC50 µM, cited from earlier work
[4] = tested on: T. cruzi intracellular amastigotes; test: Intracellular anti-Trypanosoma cruzi image-based assay (amastigotes); type: cell-based; details: Trypanosoma cruzi
3T3 host cells = test: T. cruzi assay, activity against 3T3 host cells; type: cell-based; details: reference compound set; IA = inactive at 16.4 μM
Description: page 4: […] Puromycin, 71 chloroquine, artesunate, DHA, pyronaridine and pyrimethamine were also tested in 72 IC50 format to act as internal reference compounds. 73 74 Intracellular anti-Trypanosoma cruzi Assay Protocol 75 The host cell cytoplasm, in which the parasite resides, is identified by the fluorescent 76 marker, HCS CellMask Green. Parasite and host cell nuclei are detected with the 77 fluorescent DNA intercalator, Hoechst 33342. The Opera® High Content Screening 78 System is used to take images of wells and a spot detection algorithm is used to 79 identify parasites within the cytoplasm. 80 81 Briefly, 1x 10^3 3T3 cells were added to collagen coated 384-well plates and following 82 24 hrs incubation at 37 °C, a multiplicity of infection (MOI) of 5:1 parasite: host cells 83 were added to the plate using a Multidrop liquid handler. Following additional 24 hrs 84 incubation, extracellular parasites were washed from the plates and RPMI with no […] 86 added to all wells. The final volume of media in the primary screening assay, before 87 addition of compound, was modified slightly to 55 µL. One µL of compounds, provided 88 by Compounds Australia, were diluted by the addition of 25 µL of sterile water. This […] 91 donovani). Five microliters of this dilution was added to assay plates. The final […] The final concentrations of compounds in the […] Following 48 hrs incubation in the presence 97 of compounds, wells were fixed, stained and read on the Opera® High Content 98 Screening System to assess compound activity. 99 The Z′-factor, as a measure of assay reproducibility, was determined from a plate […] The positive control used to calculate activity against […] To 103 assess the sensitivity of the T. cruzi assay, activity of the reference compounds 104 benznidazole, NFX, posaconazole and puromycin were determined. […] 108 resazurin as a measure of parasite viability. 109 T. b. brucei trypanosomes were cultured in vitro in HM1-9 medium supplemented with […] Fifty-five µL of logarithmic phase […] 112 incubated for 24 hrs at 37°C /5% CO2. Compounds were subsequently added to the […] Following […] 116 37°C / 5% CO2 followed by 22 hrs at room temperature. […] The percent

[5] = tested on: T. b. brucei 427 bloodstream trypanosomes; test: T. b. brucei resazurin viability assay; type: cell-based, Trypanosoma brucei brucei; details: Trypanosoma brucei
[6] = tested on: L. donovani MHOM/IN/80/DD8 intracellular amastigotes; test: Leishmania donovani intracellular amastigote assay in THP-1 cells; type: cell-based; details: Leishmania donovani
[7] = 3D7, read-out: Pf 3D7 Discovery Biology IC50 µM, P. falciparum 3D7 asexual blood stage
[8] = HEK293, read-out: HEK % Inhibition 20uM/IC50 Discovery Biology (IA)
[9] = P. falciparum 3D7, ref PBox supporting information
[10] = ref Pbox supporting information
[11] = NF54, read-out: Pf Stage IV GAMS Discovery Biology IC50 µM, stage IV gametocytes
[12] = ref PBox supporting information
[13] = 3D7, read-out: IC50 P. falciparum 3D7 ABS
[14] = reference compound set, IA = inactive at 20 μM, read-out: IC50 T. brucei brucei trypomastigotes
[15] = THP-1, read-out: IC50 L. donovani n = 1, reference compound set, first test, IA = inactive at 20 μM
[16] = THP-1, read-out: IC50 L. donovani n = 2, reference compound set, second test, IA = inactive at 20 μM
[17] = NF54, read-out: IC50 P. falciparum NF54 LSG, reference compound set, 11-point dose response, IA = inactive at 20 μM
[18] = reference compound set, IA = inactive at 16.4 μM, read-out: IC50 T. cruzi intracellular amastigotes
[19] = 3D7, read-out: Pf 3D7 Discovery Biology IC50 µM, P. falciparum 3D7 asexual blood stage, Discovery Biology
[20] = HEK293, read-out: HEK % Discovery Biology IC50 uM
[21] = PBox compounds, read-out: IC50 T. brucei brucei (Discovery Biology)
[22] = THP-1, intracellular amastigotes, Discovery Biology, some values carry an asterisk, read-out: L, donovani Discovery Biology IC50 µM
[23] = TCMDC, read-out: TCMDC (ref 93) EX50
[24] = Pf 3D7, ref Pathogen Box supporting information
[25] = liver stage, ref Pathogen Box supporting information, read-out: LIVER STAGE Pbox IC50
[26] = NF54, read-out: Pf Stage IV GAMS Discovery Biology IC50 µM, stage IV gametocytes, Discovery Biology
[27] = ref Pathogen Box supporting information
[28] = HepG2 CC50, ref Pathogen Box supporting information
[29] = read-out: T b.brucei Discovery Biology IC50

Compound | IC50 (3T3 host cells) [nM] | IC50 [6, 15] [µM] | IC50 [6, 16] [µM] | IC50 [4, 18] [nM] | IC50 [1, 19] [µM] | EC50 (P. falciparum ABS; [23]) [nM] | IC50 (P. falciparum ABS; [24]) [nM] | IC50 (liver stage; [25]) [nM] | IC50 [2, 26] [µM] | IC50 [3, 27] [nM] | CC50 (HepG2; [28]) [µM] | also measured
CCn1ncc2c(NC3CCOCC3)c(CNC(=O)c3ccnn3C)c(C)nc21 [MMV026356] | – | – | – | – | – | – | – | – | – | – | – | IC50 [1, 7]: 0.27 µM; IC50 (HEK293 cells; [8]): > 20 µM; EC50 (P. falciparum ABS; P. falciparum, read-out: TCMDC (ref 93) EX50): 530 nM; IC50 (P. falciparum ABS; [9]): 280 nM; IC50 (liver stage; [10]): 1600 nM; IC50 [2, 11]: 0.74 µM; IC50 [3, 12]: 240 nM; CC50 (HepG2; [12]): > 10 µM
O=C(Cn1ccnc1[N+](=O)[O-])NCc1ccccc1 [Benznidazole, reference compound] | > 16400 | > 20 | > 20 | – | – | – | – | – | – | – | – | IC50 [1, 13]: > 20 µM; inhibition at 16.4 µM ([4]; reference compound set, 16.4 μM, read-out: percent inhibition at the top screening dose, T. cruzi intracellular amastigotes): 94%; IC50 [5, 14]: > 20000 nM; IC50 [2, 17]: > 20 µM
COc1nc2ccc(Br)cc2cc1[C@@H](c1ccccc1)[C@@](O)(CCN(C)C)c1cccc2ccccc12 [Bedaquiline, reference compound] | > 16400 | > 20 | > 20 | > 16400 | – | – | – | – | – | – | – | inhibition at 20 µM ([1]; 3D7, read-out: percent inhibition at the top screening dose, P. falciparum 3D7 ABS): 91%; inhibition at 20 µM ([5]; reference compound set, 20 μM, read-out: percent inhibition at the top screening dose, T. brucei brucei): 59%; inhibition at 20 µM [2]: 75%
CCCCCCCCCCCCCCCCOP(=O)([O-])OCC[N+](C)(C)C [Miltefosine, reference compound] | > 16400 | 11.7 | 2.26 | > 16400 | – | – | – | – | – | – | – | IC50 [1, 13]: > 20 µM; IC50 [5, 14]: > 20000 nM; IC50 [2, 17]: > 20 µM
O=C(Nc1ccc(N2CCNCC2)cc1)c1ccn2ncc(-c3cccc(Cl)c3)c2n1 [MMV022478] | – | – | – | – | 1.29 | 920 | 780 | > 10000 | 2.89 | 620 | > 10 | IC50 (HEK293 cells; [20]): 8.11 µM; IC50 ([4]; intracellular amastigotes, Discovery Biology, read-out: T cruzi Discovery Biology IC50): 4700 nM; IC50 [5, 21]: 1450 nM; IC50 [6, 22]: 5.02 µM; activity in the Discovery Biology stage IV gametocyte (LSG) assay [2]: demonstrate activity; activity against gametocytes (stage V), PBox supporting information [3, 10]: demonstrate activity
O=C(NCCN1CCCC1)c1cc(NCCN2CCOCC2)nc2ccc(Cl)cc12 [MMV634140] | – | – | – | – | – | – | – | – | – | – | – | IC50 [1, 7]: 0.09 µM; IC50 (HEK293 cells; [8]): > 20 µM; IC50 (P. falciparum ABS; [9]): 100 nM; LIVER STAGE Pbox IC50 µM (liver stage; [10]): KTBA; IC50 [2, 11]: 0.39 µM; PF stage V GAMS PBox IC50 µM [3, 12]: KTBA
Cc1ccc(C(=O)Nc2ccc(S(=O)(=O)O)c3cc(S(=O)(=O)O)cc(S(=O)(=O)O)c23)cc1NC(=O)c1cccc(NC(=O)Nc2cccc(C(=O)Nc3cc(C(=O)Nc4ccc(S(=O)(=O)O)c5cc(S(=O)(=O)O)cc(S(=O)(=O)O)c45)ccc3C)c2)c1 [Suramin, reference compound] | > 16400 | > 20 | > 20 | > 16400 | – | – | – | – | – | – | – | IC50 [1, 13]: > 20 µM; IC50 ([5]; read-out: IC50 T. brucei brucei trypomastigotes): 110 nM; IC50 [2, 17]: > 20 µM
CN1CCC(NCc2cccc(-c3ccc(S(=O)(=O)NCc4ccccc4)cc3)c2)CC1 [MMV022029] | – | – | – | – | 0.69 | 690 | 820 | 4550 | 4.04 | 1420 | > 10 | inhibition at 20 µM (HEK293 cells): 100%; IC50 [5, 21]: 2380 nM; IC50 [6, 22]: 5.03 µM
OC(c1cc(C(F)(F)F)nc2c(C(F)(F)F)cccc12)C1CCCCN1 (stereo not shown) [Mefloquine, reference compound] | > 16400 | 5.17 | 6.58 | 4700 | – | – | – | – | – | – | – | IC50 ([1]; 3D7, read-out: IC50 P. falciparum 3D7 ABS, reference compound set, 11-point dose response, IA = inactive at 20 μM): < 0.016 µM; Emax ([4]; reference compound set, read-out: T. cruzi Emax (maximal % inhibition plateau in dose response curve)): 99%; IC50 [5, 14]: 330 nM; IC50 [2, 17]: 5.61 µM
O=C(Nc1ccccc1)c1ccc(-c2cc3ccncc3cc2OC2CCNCC2)s1 [MMV024035] | – | – | – | – | 0.31 | 650 | 570 | 7370 | 4.48 | 2280 | > 7.5 | IC50 (HEK293 cells; [20]): 6.67 µM; IC50 [5, 29]: 2720 nM
CC[C@@H](CO)NCCN[C@@H](CC)CO [Ethambutol, reference compound] | > 16400 | > 20 | > 20 | > 16400 | – | – | – | – | – | – | – | IC50 [1, 13]: > 20 µM; IC50 [5, 14]: > 20000 nM; inhibition at 20 µM [2]: 42%
O=C(NCCN1CCCC1)c1cc(NCCCCN2CCC(F)(F)CC2)nc2ccc(Cl)cc12 [MMV667494] | – | – | – | – | – | – | – | – | – | – | – | IC50 ([1]; 3D7, read-out: Pf 3D7 Discovery Biology IC50, P. falciparum 3D7 asexual blood stage, nM): < 0.01 µM; IC50 (HEK293 cells; [8]): > 20 µM; IC50 (P. falciparum ABS; [9]): 7 nM; LIVER STAGE Pbox IC50 µM (liver stage; [10]): KTBA; IC50 [2, 11]: 0.12 µM; PF stage V GAMS PBox IC50 µM [3, 12]: KTBA
Cc1ccc2c(c1C)NC(=O)C21NN=C(c2ccccc2)S1 (stereo not shown) [MMV019189] | – | – | – | – | 2.28 | 750 | 1130 | 880 | 1.97 | 900 | > 7.5 | IC50 [5, 29]: 4680 nM
N#Cc1ccc(-c2cnc(N)c(-c3ccc(C(N)=O)cc3)n2)cc1 [MMV085499] | – | – | – | – | – | – | – | – | – | – | – | IC50 [1, 7]: 0.19 µM; IC50 (HEK293 cells; [8]): > 20 µM; EC50 (P. falciparum ABS; P. falciparum, read-out: NITD (ref 94) EC50): 60 nM; IC50 (P. falciparum ABS; [9]): 95 nM; IC50 (liver stage; [10]): 280 nM; IC50 [2, 11]: 0.55 µM; IC50 [3, 12]: 140 nM; CC50 (HepG2; [12]): > 10 µM
COc1cc(-c2cc(-c3ccc(S(C)(=O)=O)cc3)cnc2N)ccc1O [MMV010576] | – | – | – | – | 0.07 | 100 | 100 | 2520 | 0.15 | 66 | > 10 | IC50 ([6]; THP-1, PBox compounds, intracellular amastigotes, read-out: IC50 L. donovani (Discovery Biology)): 5.18 µM
NS(=O)(=O)c1cccc(-c2ccc3ncc(N4CCOCC4)nc3c2)c1 [MMV023860] | – | – | – | – | 0.89 | 990 | 1500 | 1820 | 2.13 | 1330 | > 10 | inhibition at 20 µM (HEK293 cells): 40%
